A word on the inhibition: it is the change of the read-out against control, counted positive when it falls. One may read the IC50 as the concentration that inhibits the measured activity by half.

The structures appear in SMILES notation.

In one data set the target is T1, recombinant NMDA receptors NR1(−3)/NR2A (Homo sapiens, UniProt Q05586+Q12879).
T1 construct: expressed in transfected cells
T1 sequence (Q12879 23-1464, other chains not shown): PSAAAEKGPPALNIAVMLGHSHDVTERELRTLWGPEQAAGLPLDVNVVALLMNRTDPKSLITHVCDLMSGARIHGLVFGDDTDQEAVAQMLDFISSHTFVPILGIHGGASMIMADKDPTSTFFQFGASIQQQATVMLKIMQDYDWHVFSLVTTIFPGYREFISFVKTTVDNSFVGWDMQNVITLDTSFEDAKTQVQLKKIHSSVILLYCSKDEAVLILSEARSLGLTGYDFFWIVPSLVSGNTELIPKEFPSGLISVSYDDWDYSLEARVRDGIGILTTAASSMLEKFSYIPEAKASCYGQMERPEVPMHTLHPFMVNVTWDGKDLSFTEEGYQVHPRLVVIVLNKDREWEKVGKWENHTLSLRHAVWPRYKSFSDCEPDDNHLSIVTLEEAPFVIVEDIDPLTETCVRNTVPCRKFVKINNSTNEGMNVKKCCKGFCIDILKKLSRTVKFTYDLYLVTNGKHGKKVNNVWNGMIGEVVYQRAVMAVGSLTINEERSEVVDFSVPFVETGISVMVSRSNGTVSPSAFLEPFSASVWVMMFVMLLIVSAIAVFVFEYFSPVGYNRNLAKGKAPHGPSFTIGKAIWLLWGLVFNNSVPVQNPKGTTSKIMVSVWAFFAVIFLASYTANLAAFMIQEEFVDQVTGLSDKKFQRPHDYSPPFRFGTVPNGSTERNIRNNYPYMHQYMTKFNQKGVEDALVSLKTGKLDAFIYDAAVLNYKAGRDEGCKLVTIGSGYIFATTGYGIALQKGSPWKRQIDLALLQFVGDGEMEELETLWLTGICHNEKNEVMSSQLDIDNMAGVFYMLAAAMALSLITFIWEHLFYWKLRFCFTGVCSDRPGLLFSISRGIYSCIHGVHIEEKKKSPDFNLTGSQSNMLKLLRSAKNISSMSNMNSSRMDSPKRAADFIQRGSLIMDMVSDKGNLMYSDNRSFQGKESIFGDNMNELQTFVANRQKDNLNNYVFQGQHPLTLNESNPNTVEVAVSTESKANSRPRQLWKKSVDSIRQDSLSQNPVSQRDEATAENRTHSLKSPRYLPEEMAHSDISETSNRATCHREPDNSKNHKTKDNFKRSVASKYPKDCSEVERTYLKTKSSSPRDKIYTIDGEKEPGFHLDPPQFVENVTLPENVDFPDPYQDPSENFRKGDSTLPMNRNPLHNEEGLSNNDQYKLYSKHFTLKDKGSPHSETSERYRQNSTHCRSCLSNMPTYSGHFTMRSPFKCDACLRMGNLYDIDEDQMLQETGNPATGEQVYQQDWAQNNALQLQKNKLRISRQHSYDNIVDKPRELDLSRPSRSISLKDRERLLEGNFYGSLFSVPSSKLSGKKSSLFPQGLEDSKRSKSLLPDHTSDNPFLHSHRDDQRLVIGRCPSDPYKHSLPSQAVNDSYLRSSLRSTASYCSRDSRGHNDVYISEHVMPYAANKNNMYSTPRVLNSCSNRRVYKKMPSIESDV
Put plainly: Inhibition of NMDA evoked cytosolic calcium elevation in HEK 293 cells expressing recombinant NR1-3/NR2A. It is filed as cell-based. To be noted: 10 μM, NR1-3/NR2A subunit expressing cells. How it is done:
(2003)]. […] Compounds were tested for their inhibitory action on NMDA evoked cytosolic calcium elevations in fluorescent calcium measurements. Studies were performed 48-72 h after addition of the inducing agent. Ketamine (500 μM) was also present during the induction in order to prevent cytotoxicity.
(§1) Dose-response curves and IC50 values were calculated by using data derived from at least three independent experiments. Inhibitory potency of a compound at a single concentration point was expressed as percent inhibition of the NMDA response. Sigmoidal concentration-inhibition curves were fit to the data and IC50 values were determined as the concentration that produces half of the maximal inhibition caused by the compound.
On to `O=C(CCN1CCC(Cc2ccc(F)cc2)CC1)c1ccc2[nH]c(=O)oc2c1` [EMD 95885, reference compound], for which the “NR1-3/NR2A % inhibition at 10 μM” value is reported as 0.1%.

The data set is the same for the next values; noted with them: HEK293; 10 μM, NR1-3/NR2A subunit expressing cells.
Turning to `C[C@@H]([C@@H](O)c1ccc(O)cc1)N1CCC(O)(c2ccccc2)CC1` [CP 101,606, (1S,2S)-1-(4-hydroxyphenyl)-2-(4-hydroxy-4-phenylpiperidine-1-yl)-1-propanol], the inhibition at 10 µM turned out to be 2.5%.

As for `CC(C(O)c1ccc(O)cc1)N1CCC(Cc2ccccc2)CC1` (stereo not drawn) [Erythro-ifenprodil, erythro-2-(4-benzylpiperidino)-1-(4-hydroxyphenyl)-1-propanol], the inhibition at 10 µM is -2.7%.

Take `CC(CN1CCC(Cc2ccccc2)CC1)C(O)c1ccc(O)cc1` (stereo not drawn) [Ro 25.6981, R-(R*,S*)-1-(4-hydroxyphenyl)-2-methyl-3-[4-(phenylmethyl)piperidin-1-yl]-1-propanol, reference compound]: the inhibition at 10 µM was 1%.

Staying with this data set, now noted: HEK293; 15 μM, NR1-3/NR2A subunit expressing cells.
Consider `COc1cccc(OC)c1CNC(=N)c1cc2ccccc2[nH]1` [Compound 36], for which the inhibition at 15 µM turned out to be 32.1%.

As for `COc1ccc2[nH]c(C(=N)NCc3cccnc3)cc2c1` [Compound 134], the inhibition at 15 µM was 6.1%.

For `COc1ccc2[nH]c(C(=N)NCc3c(OC)cccc3OC)cc2c1` [Compound 147], the inhibition at 15 µM stood at 21.7%.

System in a further data set: not given
Test: not given
The following applies: cited from earlier work.
On to `C[C@@H]([C@@H](O)c1ccc(O)cc1)N1CCC(O)(c2ccccc2)CC1` [CP 101,606, (1S,2S)-1-(4-hydroxyphenyl)-2-(4-hydroxy-4-phenylpiperidine-1-yl)-1-propanol], for which the “effect on neuropathic pain in clinical trial” value is “reduced neuropathic pain”.

The same data set, now with this note: no psychotomimetic effects, hallucinations, dysphoria; cited from earlier work.
As for `C[C@@H]([C@@H](O)c1ccc(O)cc1)N1CCC(O)(c2ccccc2)CC1` [CP 101,606, (1S,2S)-1-(4-hydroxyphenyl)-2-(4-hydroxy-4-phenylpiperidine-1-yl)-1-propanol], the “tolerability in clinical trial” value is listed as “well tolerated”.

The target of a further data set is T2, NMDA receptors of rat cortical neurons (Rattus norvegicus, UniProt Q00960).
T2 construct: primary neocortical cell cultures derived from 17 day old Charles River rat embryos; endogenous in cells; host or cells: primary rat embryonic (E17) neocortical cell culture, 3-7 days in vitro
T2 sequence (Q00960 27-1482, other chains not shown): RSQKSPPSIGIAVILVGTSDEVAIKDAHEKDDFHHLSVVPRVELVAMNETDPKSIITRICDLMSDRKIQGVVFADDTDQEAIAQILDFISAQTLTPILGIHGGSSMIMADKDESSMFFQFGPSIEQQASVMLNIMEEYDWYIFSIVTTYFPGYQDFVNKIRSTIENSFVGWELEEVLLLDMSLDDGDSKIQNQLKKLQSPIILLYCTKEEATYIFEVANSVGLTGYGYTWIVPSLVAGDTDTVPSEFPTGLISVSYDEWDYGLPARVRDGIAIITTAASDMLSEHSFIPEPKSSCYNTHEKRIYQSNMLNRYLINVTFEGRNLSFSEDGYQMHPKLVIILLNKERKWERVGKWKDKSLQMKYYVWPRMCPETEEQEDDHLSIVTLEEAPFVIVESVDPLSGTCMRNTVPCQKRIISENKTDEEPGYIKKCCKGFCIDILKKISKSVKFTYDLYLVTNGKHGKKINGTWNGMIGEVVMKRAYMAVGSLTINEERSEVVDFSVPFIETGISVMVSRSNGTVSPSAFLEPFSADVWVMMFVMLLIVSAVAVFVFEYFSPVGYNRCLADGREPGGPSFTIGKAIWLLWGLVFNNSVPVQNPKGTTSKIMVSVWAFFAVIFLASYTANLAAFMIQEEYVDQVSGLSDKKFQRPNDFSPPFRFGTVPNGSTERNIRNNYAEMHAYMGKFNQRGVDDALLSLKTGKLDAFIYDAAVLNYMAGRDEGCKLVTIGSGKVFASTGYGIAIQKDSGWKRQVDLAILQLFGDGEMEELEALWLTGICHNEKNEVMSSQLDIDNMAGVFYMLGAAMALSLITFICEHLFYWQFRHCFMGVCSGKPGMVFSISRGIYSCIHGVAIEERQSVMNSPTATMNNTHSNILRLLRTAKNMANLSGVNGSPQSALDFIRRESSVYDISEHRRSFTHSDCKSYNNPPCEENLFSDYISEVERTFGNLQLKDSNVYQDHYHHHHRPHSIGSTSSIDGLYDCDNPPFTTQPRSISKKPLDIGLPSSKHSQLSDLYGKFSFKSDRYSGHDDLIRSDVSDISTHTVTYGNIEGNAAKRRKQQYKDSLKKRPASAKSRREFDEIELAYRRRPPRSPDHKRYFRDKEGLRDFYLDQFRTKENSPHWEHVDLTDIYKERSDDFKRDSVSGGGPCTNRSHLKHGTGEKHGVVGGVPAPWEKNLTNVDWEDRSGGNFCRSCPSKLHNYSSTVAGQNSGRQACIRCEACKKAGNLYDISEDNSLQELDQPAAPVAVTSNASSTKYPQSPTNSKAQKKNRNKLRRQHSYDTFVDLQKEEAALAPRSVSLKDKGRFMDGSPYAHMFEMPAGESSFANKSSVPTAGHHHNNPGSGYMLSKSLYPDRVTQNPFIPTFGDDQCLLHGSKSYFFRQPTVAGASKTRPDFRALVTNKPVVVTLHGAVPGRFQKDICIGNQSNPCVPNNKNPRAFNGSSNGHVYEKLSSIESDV
Kind of data set: NMDA antagonist potency by intracellular calcium measurement (plate reader fluorimeter) in rat cortical cell culture. In kind it is cell-based.
Conditions: not given
Here is the method: Assessment of NMDA Antagonist Potency In Vitro by Measurement of Intracellular Calcium Concentration with a Plate Reader Fluorimeter in Rat Cortical Cell Culture
The intracellular calcium measurements were carried out on primary neocortical cell cultures derived from 17 day old Charles River rat embryos (for the details on the preparation of neocortical cell culture see Johnson, M. I.; Bunge, R. P. (1992): Primary cell cultures of peripheral and central neurons and glia. In: Protocols for Neural Cell Culture, eds: Fedoroff, S.; Richardson A., The Humana Press Inc., 51-75.) After isolation the cells were plated onto standard 96-well microplates and the cultures were maintained in an atmosphere of 95% air-5% CO2 at 37° C. until the calcium measurements.
The cultures were used for the intracellular calcium measurements after 3-7 days in vitro. Before the measurement the cells were loaded with a fluorescent Ca^2+-sensitive dye, Fluo-4/AM (2 μM). To stop the loading the cells were washed twice with the solution used for the measurement (140 mM NaCl, 5 mM KCl, 2 mM CaCl2, 5 mM HEPES, 5 mM HEPES-Na, 20 mM glucose, 10 μM glycine, pH=7.4). After washing the test compounds were added to the cells in the above solution (90 μl/well). Intracellular calcium measurements were carried out with a plate reader fluorimeter: elevation of Fluo-4-fluorescence and so, intracellular calcium was induced by application of 40 μM NMDA. Inhibitory potency of the test compounds was assessed by measuring the reduction in the calcium elevation in the presence of different concentrations of the compounds.
as §1
Take `CC(CN1CCC(Cc2ccccc2)CC1)C(O)c1ccc(O)cc1` (stereo not drawn) [Ro 25.6981, R-(R*,S*)-1-(4-hydroxyphenyl)-2-methyl-3-[4-(phenylmethyl)piperidin-1-yl]-1-propanol, reference compound]: the IC50 worked out at 159 nM.

The data set is the same for the next values; noted with them: rat cortical cells, 40 μM NMDA, fluorimetric method; read-out: Cortical cells IC50.
Consider `O=c1[nH]c2ccc([S+]([O-])CCN3CCC(Cc4ccc(F)cc4)CC3)cc2o1` (stereo not shown) [CI-1041, 6-{2-[4-(4-fluoro-benzyl)-piperidin-1-yl]-ethanesulfinyl}-3H-benzooxazol-2-one, reference compound], for which the IC50 is 6.6 nM.

`Cc1ccc(CC2(O)CCN(CCOc3ccc(O)cc3)CC2)cc1` [Co-101244, 1-[2-(4-hydroxyphenoxy)ethyl]-4-hydroxy-4-(4-methylbenzyl)piperidine, reference compound]: the IC50 was found to be 23 nM.

As for `CCOc1ccccc1CNC(=N)c1cc2ccccc2[nH]1` [Compound 19], the IC50 is 75 nM.

`N=C(NCc1ccccc1Br)c1cc2ccccc2[nH]1` [Compound 25]: the IC50 was 277 nM.

As for `N=C(NCc1cccc(Br)c1)c1cc2ccccc2[nH]1` [Compound 26], the IC50 was 418 nM.

As to `N=C(NCc1ccccc1F)c1cc2ccccc2[nH]1` [Compound 29], the IC50 came out at 232 nM.

`N=C(NCc1cc(F)ccc1F)c1cc2ccccc2[nH]1` [Compound 30]: the IC50 turned out to be 224 nM.

For `N=C(NCc1c(F)cccc1F)c1cc2ccccc2[nH]1` [Compound 31], the IC50 is 143 nM.

Regarding `Cc1ccccc1C/N=C(\N)c1cc2ccccc2[nH]1` [Compound 32], the half-maximal inhibitory concentration (IC50) is 170 nM.

Take `COc1ccc(OC)c(CNC(=N)c2cc3ccccc3[nH]2)c1` [Compound 35]: the half-maximal inhibitory concentration (IC50) stood at 341 nM.

`COc1cccc(OC)c1CNC(=N)c1cc2ccccc2[nH]1` [Compound 36]: the IC50 is 5.4 nM.

As to `N=C(NCc1cc(Cl)cc(Cl)c1)c1cc2ccccc2[nH]1` [Compound 38], the IC50 was 159 nM.

In the case of `COc1cccc(CNC(=N)c2cc3cc(F)ccc3[nH]2)c1` [Compound 57], the IC50 turned out to be 211 nM.

Consider `CCOc1ccccc1CNC(=N)c1cc2cc(F)ccc2[nH]1` [Compound 59], for which the IC50 was found to be 51 nM.

For `N=C(NCc1cc(F)ccc1F)c1cc2cc(F)ccc2[nH]1` [Compound 67], the 50% inhibitory concentration (IC50) was found to be 359 nM.

As to `Cc1ccccc1CNC(=N)c1cc2cc(F)ccc2[nH]1` [Compound 68], the IC50 came to 160 nM.

On to `N=C(NCc1cc(F)cc(F)c1)c1cc2cc(F)ccc2[nH]1` [Compound 70], for which the IC50 was 594 nM.

As for `COc1ccc(OC)c(CNC(=N)c2cc3cc(F)ccc3[nH]2)c1` [Compound 71], the IC50 came to 453 nM.

Turning to `COc1cccc(OC)c1C/N=C(\N)c1cc2cc(F)ccc2[nH]1` [Compound 72], the IC50 came to 17 nM.

In the case of `N=C(NCc1cc(Cl)cc(Cl)c1)c1cc2cc(F)ccc2[nH]1` [Compound 73], the 50% inhibitory concentration (IC50) came to 209 nM.

As to `N=C(NCc1cccc(F)c1)c1cc2cc(Cl)ccc2[nH]1` [Compound 81], the half-maximal inhibitory concentration (IC50) stood at 432 nM.

In the case of `COc1ccc(CNC(=N)c2cc3cc(Cl)ccc3[nH]2)c(OC)c1` [Compound 83], the half-inhibitory concentration (IC50) was determined as 369 nM.

Regarding `N=C(NCc1ccccc1Cl)c1cc2cc(Cl)ccc2[nH]1` [Compound 87], the IC50 worked out at 422 nM.

Turning to `COc1cccc(CNC(=N)c2cc3cc(Cl)ccc3[nH]2)c1` [Compound 92], the half-inhibitory concentration (IC50) was 319 nM.

Turning to `CCOc1ccccc1CNC(=N)c1cc2cc(Cl)ccc2[nH]1` [Compound 94], the IC50 was 213 nM.

Turning to `N=C(NCc1cccnc1)c1cc2cc(Cl)ccc2[nH]1` [Compound 97], the half-inhibitory concentration (IC50) worked out at 125 nM.

On to `N=C(NCc1cccc(Br)c1)c1cc2cc(Cl)ccc2[nH]1` [Compound 103], for which the half-inhibitory concentration (IC50) worked out at 257 nM.

Turning to `N=C(NCc1ccccc1OC(F)(F)F)c1cc2cc(Cl)ccc2[nH]1` [Compound 106], the concentration for half-maximal inhibition (IC50) came to 198 nM.

`N=C(NCc1ccccc1F)c1cc2cc(Cl)ccc2[nH]1` [Compound 107]: the 50% inhibitory concentration (IC50) came to 493 nM.

In the case of `N=C(NCc1c(F)cccc1F)c1cc2cc(Cl)ccc2[nH]1` [Compound 108], the IC50 stood at 742 nM.

Turning to `Cc1ccccc1CNC(=N)c1cc2cc(Cl)ccc2[nH]1` [Compound 109], the IC50 stood at 218 nM.

Turning to `N=C(NCc1cc(F)cc(F)c1)c1cc2cc(Cl)ccc2[nH]1` [Compound 110], the IC50 came out at 702 nM.

Turning to `COc1ccc(OC)c(CNC(=N)c2cc3cc(Cl)ccc3[nH]2)c1` [Compound 111], the half-inhibitory concentration (IC50) was found to be 417 nM.

Take `COc1cccc(OC)c1C/N=C(\N)c1cc2cc(Cl)ccc2[nH]1` [Compound 112]: the IC50 came out at 69 nM.

As to `COc1ccc2[nH]c(C(=N)NCc3ccccc3)cc2c1` [Compound 118], the IC50 amounted to 224 nM.

In the case of `COc1ccc2[nH]c(C(=N)NCc3ccccc3C(F)(F)F)cc2c1` [Compound 119], the IC50 is 401 nM.

Take `COc1ccc(CNC(=N)c2cc3cc(OC)ccc3[nH]2)c(OC)c1` [Compound 123]: the concentration for half-maximal inhibition (IC50) turned out to be 129 nM.

In the case of `COc1ccc2[nH]c(C(=N)NCc3ccc(OC)c(OC)c3)cc2c1` [Compound 126], the IC50 is 519 nM.

As to `COc1ccc2[nH]c(C(=N)NCc3cccc(Cl)c3)cc2c1` [Compound 127], the concentration for half-maximal inhibition (IC50) worked out at 373 nM.

As to `COc1ccc2[nH]c(C(=N)NCc3cccc(C)c3)cc2c1` [Compound 128], the IC50 worked out at 220 nM.

`COc1cccc(CNC(=N)c2cc3cc(OC)ccc3[nH]2)c1` [Compound 129]: the IC50 is 52 nM.

Turning to `CCOc1ccccc1CNC(=N)c1cc2cc(OC)ccc2[nH]1` [Compound 131], the IC50 was determined as 57 nM.

Take `COc1ccc2[nH]c(C(=N)NCc3cccnc3)cc2c1` [Compound 134]: the IC50 was 100 nM.

`COc1ccc2[nH]c(C(=N)NCc3ccccc3Br)cc2c1` [Compound 138]: the IC50 was determined as 232 nM.

Consider `COc1ccc2[nH]c(C(=N)NCc3cccc(Br)c3)cc2c1` [Compound 139], for which the concentration for half-maximal inhibition (IC50) stood at 397 nM.

Turning to `COc1ccc2[nH]c(C(=N)NCc3cc(F)ccc3F)cc2c1` [Compound 142], the IC50 was 202 nM.

For the compound `COc1ccc2[nH]c(C(=N)NCc3c(F)cccc3F)cc2c1` [Compound 143], the IC50 worked out at 158 nM.

As to `COc1ccc2[nH]c(C(=N)NCc3cc(F)cc(F)c3)cc2c1` [Compound 145], the half-maximal inhibitory concentration (IC50) was determined as 318 nM.

On to `COc1ccc(OC)c(CNC(=N)c2cc3cc(OC)ccc3[nH]2)c1` [Compound 146], for which the 50% inhibitory concentration (IC50) came to 287 nM.

As to `COc1ccc2[nH]c(C(=N)NCc3c(OC)cccc3OC)cc2c1` [Compound 147], the 50% inhibitory concentration (IC50) amounted to 26 nM.

Consider `O=C(CCN1CCC(Cc2ccc(F)cc2)CC1)c1ccc2[nH]c(=O)oc2c1` [EMD 95885, reference compound], for which the 50% inhibitory concentration (IC50) stood at 35 nM.

Source of the values: patent US20090048303A1, “Indole-2-carboxamidine derivatives as nmda receptor antago” (priority 2004, published 2009).
